According to patent US20260091147A1, “METHOD FOR DETECTING INNATE IMMUNE ACTION IN VIVO USING GPR84-PET” (The Board of Trustees of the Leland Standford Junior …, priority 2023, published 2026):

Key:
[1] = system: human monocyte-derived macrophages (hMDMs); test: hMDM radioactive cell binding assay, with or without LPS; format: cell-based; details: LPS 100 ng/mL; for tracer signal in LPS-challenged hMDMs after co-incubation with GLPG1205: GLPG1205 block
Experimental: CD14^+ monocytes isolated from PBMCs from human peripheral blood were plated 10×10^6 cells per 10 cm petri dish in 8-10 mL complete growth medium (for quantitative PCR) or 10^6-10^5 cells per well in 1 mL complete growth medium into one 12-well plate per blood donor (radioactive cell binding) and incubated 7-10 days at 5% CO2 in air at 37° C. These cells were then treated with 100 ng/mL LPS in complete growth medium 24 hr or 72 hr prior to experimentation according to previous working concentrations in the literature.
Human monocyte-derived macrophages (hMDMs) were plated at a concentration of 10^6-10^5 cells per well in media (RPMI 1640+glutamax with 10% FBS, 1% anti-anti, and 50 ng/mL M-CSF) into one 12-well plate per blood donor. Once cells adhered to the plate (˜24 hr), 100 ng/mL lipopolysaccharides (LPS) was applied to two of the three rows of the plate. 24 hr later, the [^11C]GLPG38, [^11C]MGX-10S, or [^18F]MGX-110S radiotracer was prepared. The radiotracer was diluted in RPMI 1640 without FBS or antibiotic to yield a 30 mL solution such that the amount of activity was 50 μCi/mL for ^11C or 2 μCi/mL for ^18F. Additionally, a blocking solution was prepared consisting of 35 μM GLPG1205 dissolved in DMSO and added to RPMI 1640 media+tracer solution. The 12-well plates were incubated for 30 min at […] and 5% CO2 in air. Following incubation, the radioactive media was removed and replaced with 500 μL fresh media, and a 10 min efflux was conducted. After efflux, the media was collected into a gamma counting tube to measure supernatant, and the cells were washed with PBS, trypsinized, resuspended in RPMI 1640+glutamax+10% FBS, then pipetted into gamma counting tubes at 500 μL volume.
Radioactivity levels bound to cells were measured in a gamma counter (Hidex Oy, Helsinki, Finland), and cell counts were recorded using Trypan blue and an automatic cell counter to normalize radioactivity levels to cell count.

GPR84 [2] = molecular target: T1, GPR84 (Mus musculus, UniProt Q8CIM5); test: Ex vivo biodistribution (gamma counting) of GPR84 tracer in LPS- vs saline-treated mice; details: LPS 10 mg/kg
T1 construct: tissue Jackson Laboratories; host or cells: female C57BL/6J mice (LPS, saline, EAE or naive): brain, spinal cord and peripheral organs
Experimental: FIGS. 11A-11B show ex vivo biodistribution and autoradiography. […] At 20 min postinjection, animals were perfused with saline and tissues were collected, weighed, and gamma-counted. […] Statistical analysis was performed using “Unpaired t test with Welch correction”, *=P<0.05. […] Cb=cerebellum, Ctx=cortex, Str=striatum, H=hippocampus, Mb=midbrain, Ob=olfactory bulb, and BS=brain stem.
To determine KD of GLPG38, a competitive binding assay was performed using a membrane preparation from cells expressing GPR84-Gi in addition to [^3H]G9543, a known GPR84 antagonist. [^11C]GLPG38 was then radiosynthesized via [^11C]methylation of desmethyl precursor using [^11C]methyl iodide. […] Dynamic 60 min PET/CT imaging was performed 24 hr following LPS-administration using [^11C]GLPG38. Subsequently, mice were perfused with PBS to remove blood, and radioactive signal was assessed in CNS and peripheral tissues via gamma counting. Ex vivo autoradiography of sagittal mouse brain sections was conducted to obtain high resolution images of [^11C]GLPG38 binding. To investigate alterations in GPR84 mRNA expression, quantitative polymerase-chain reaction was performed using mouse brain tissue and human monocyte-derived macrophage cells stimulated with LPS 24 hr prior to RNA extraction.

GPR84 [3] = molecular target: T1, GPR84; test: Ex vivo autoradiography of brain sections from LPS-treated mice; format: in vivo
Experimental: To determine KD of GLPG38, a competitive binding assay was performed using a membrane preparation from cells expressing GPR84-Gi in addition to [^3H]G9543, a known GPR84 antagonist. [^11C]GLPG38 was then radiosynthesized via [^11C]methylation of desmethyl precursor using [^11C]methyl iodide. Binding specificity of [^11C]GLPG38 was assessed using human GPR84-stably-expressing human embryonic kidney cells (HEK-293) versus control HEK-293 cells. For animal studies, sepsis was induced in female C57BL/6J mice via intraperitoneal injection of lipopolysaccharide (LPS, 10 mg/kg); vehicle-treated mice were injected with saline alone. Dynamic 60 min PET/CT imaging was performed 24 hr following LPS-administration using [^11C]GLPG38. Subsequently, mice were perfused with PBS to remove blood, and radioactive signal was assessed in CNS and peripheral tissues via gamma counting. Ex vivo autoradiography of sagittal mouse brain sections was conducted to obtain high resolution images of [^11C]GLPG38 binding. To investigate alterations in GPR84 mRNA expression, quantitative polymerase-chain reaction was performed using mouse brain tissue and human monocyte-derived macrophage cells stimulated with LPS 24 hr prior to RNA extraction.
Ex vivo Audoradiography Confirms ^11C-MGX-10S Specificity.

T1 sequence (Q8CIM5 whole entry): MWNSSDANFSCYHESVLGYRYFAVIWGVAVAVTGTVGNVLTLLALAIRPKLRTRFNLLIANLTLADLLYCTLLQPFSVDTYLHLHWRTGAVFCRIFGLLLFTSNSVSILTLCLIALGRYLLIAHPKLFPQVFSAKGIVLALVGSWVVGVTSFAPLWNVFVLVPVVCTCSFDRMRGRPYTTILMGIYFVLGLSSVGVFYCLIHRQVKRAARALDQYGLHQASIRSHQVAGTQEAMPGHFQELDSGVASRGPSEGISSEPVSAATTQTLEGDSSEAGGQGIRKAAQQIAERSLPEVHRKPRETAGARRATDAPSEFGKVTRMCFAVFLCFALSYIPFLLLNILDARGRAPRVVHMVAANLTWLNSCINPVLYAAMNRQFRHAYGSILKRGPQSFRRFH

SMILES	tracer binding in LPS-challenged hMDMs compared to unstimulated cells [1]	tracer signal in LPS-challenged hMDMs after co-incubation with GLPG1205 [1]	gamma counting signal in brain, LPS-injected vs vehicle mice (GPR84 [2]; p=0.0023)	gamma counting tracer binding in adipose tissue, LPS vs vehicle mice (GPR84 [2]; p=0.007)	tracer binding in LPS brain sections after pre-blocking with GLPG1205 (GPR84 [3]; GLPG1205 5 mg/kg ([11C]GLPG38) or 1 mg/kg (11C-MGX-10S))	tracer binding in brain sections, LPS-treated vs vehicle mice (GPR84 [3]; mouse, in vivo)
O=c1nc(OC[C@@H]2COCCO2)cc2n1CCc1cc([18F])ccc1-2 [^18F-MGX-110S]	significantly higher binding	reduced to baseline				
Cc1cc2c(cc1O[11CH3])CCn1c-2c(C)c(OC[C@@H]2COCCO2)cc1=O [[^11C]GLPG38]	significantly higher binding	reduced to baseline	increased signal in the brain	significant increase in tracer binding	substantial reduction	marked increase
